{"source": "patent US10881110B2", "about": "“Herbicidal compositions comprising isoxazolo[5,4-b]pyridines” (BASF SE, priority 2014, dated 2021)", "assay_in_all_cases": "greenhouse post-emergence herbicidal test", "key": {"[1]": {"tested_on": "GERDI", "type": "in vivo, Geranium dissectum", "parameters": "key to herbicidal activity against GERDI found: rating on a scale from 0 to 100", "conditions": "post emergence", "in_short": "(§1)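 Once 1 to 15 cm tall, potted seedlings in loamy sand received the active compounds emulsified or suspended in water. After 20 days, damage versus untreated growth was graded on a 0–100 scale, and synergy judged against Colby's additive value E.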"}, "[2]": {"tested_on": "SORVU", "type": "in vivo", "conditions": "6 days after treatment"}, "[3]": {"tested_on": "POLPE", "type": "in vivo, Persicaria maculosa", "parameters": "key: scale 0 to 100", "in_short": "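Herbicidal activity scored on a 0 (no damage) to 100 (plants destroyed) scale, usually 20 days after water-based spraying of 1–15 cm plants grown in loamy sand at 10-25 °C or 20-35 °C depending on species. Components were applied from 10% emulsion concentrates; Colby's E=X+Y−(X·Y/100) gives the additive expectation.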"}, "[4]": {"tested_on": "CONAR", "type": "in vivo, Convolvulus arvensis", "parameters": "key: rating on a scale from 0 to 100", "in_short": "as §1"}, "[5]": {"tested_on": "LOLMU", "type": "in vivo, Lolium multiflorum", "experimental": "The culture containers used were plastic pots containing medium loamy sand with approximately 4.6% of humus and 69.9% sand as substrate. The seeds of the test plants were sown separately for each species.\nFor the post-emergence treatment, the test plants were grown to a plant height of from 1 to 15 cm, depending on the plant habit, and only then treated with the active compounds which had been suspended or emulsified in water. To this end, the test plants were either sown directly, and grown in the same containers, or they were first grown separately as seedlings and transplanted into the test containers a few days prior to treatment.\nDepending on the species, the plants were kept at 10-25° C. and 20-35° C., respectively.\nThe test period extended over 1 to 3 weeks. During this time, the plants were tended and their response to the individual treatments was evaluated 20 days after treatment except mentioned otherwise.\nEvaluation was carried out using a scale from 0 to 100. 100 means no emergence of the plants, or complete destruction of at least the above-ground parts, and 0 means no damage or normal course of growth.\nThe respective stated components A and B, and, if appropriate, C, were formulated as a 10% by weight strength emulsion concentrate and, with addition of the amount of solvent system, introduced into the spray liquor used for applying the active compound. In the examples, the solvent used was water.\nIn the examples below, using the method of S. R. Colby (1967) “Calculating synergistic and antagonistic responses of herbicide combinations”, Weeds 15, p. 22 ff., the value E, which is expected if the activity of the individual active compounds is only additive, was calculated. E=X+Y−(X·Y/100)"}, "[6]": {"conditions": "application rate a.i.: I.1 62.5 g/ha, B.30 (imazamox) 3.75 g/ha, alone or as mixture (composition 1.030)"}, "[7]": {"conditions": "application rate a.i.: I.1 31.25 g/ha, B.139 (pyroxasulfone) 12.5 g/ha, alone or as mixture (composition 1.139)"}, "[8]": {"conditions": "a.i. g/ha: I.1 7.8, B.67 125, 20 days after treatment"}, "[9]": {"conditions": "a.i. g/ha: I.1 15.6, B.67 125, 20 days after treatment"}, "[10]": {"conditions": "a.i. g/ha: I.1 31.25, B.67 125, 20 days after treatment"}, "[11]": {"conditions": "a.i. g/ha: I.1 62.5, B.67 62.5, 20 days after treatment"}, "[12]": {"conditions": "a.i. g/ha: I.1 62.5, B.67 125, 20 days after treatment"}, "[13]": {"conditions": "a.i. g/ha: I.1 62.5, B.77 75, 20 days after treatment"}}, "note": "Several values for one entry are separate records, joined by “and”; a condition that tells them apart may be missing. Equal values may be shown once."}
{"smiles": "O=C(O)c1cc(C2CC2)nc2onc(C3CC3)c12", "note": "[I.1]", "values": [{"measurement": "herbicidal activity against GERDI found", "setting": "[1]; [6]", "value": 85}, {"measurement": "herbicidal activity against GERDI found", "setting": "[1]; application rate a.i.: I.1 62.5 g/ha, B.40 (imazethapyr) 7.5 g/ha, alone or as mixture (composition 1.40)", "value": 70}, {"measurement": "herbicidal activity against GERDI found", "setting": "[1]; application rate a.i.: I.1 62.5 g/ha, B.87 (carfentrazone-ethyl) 1.75 g/ha, alone or as mixture (composition 1.87)", "value": 85}, {"measurement": "herbicidal activity against GERDI found", "setting": "[1]; application rate a.i.: I.1 125 g/ha, B.113 (glyphosate) 135 g/ha, alone or as mixture (composition 1.113)", "value": 80}, {"measurement": "herbicidal activity against GERDI found", "setting": "[1]; application rate a.i.: I.1 250 g/ha, B.193 15 g/ha, alone or as mixture (composition 1.193)", "value": 95}, {"measurement": "herbicidal activity against GERDI found", "setting": "[1]; applied alone at 31.25 g/ha a.i.", "value": 65}, {"measurement": "herbicidal activity against GERDI found", "setting": "[1]; g/ha a.i.: I.1 31.25, B.52 2.5, mixture 31.25+2.5", "value": 50}, {"measurement": "herbicidal activity against GERDI found", "setting": "[1]; g/ha a.i.: I.1 62.5, B.52 2.5, mixture 62.5+2.5", "value": 65}, {"measurement": "herbicidal activity against GERDI found", "setting": "[1]; g/ha a.i.: I.1 125, B.52 2.5, mixture 125+2.5", "value": 65}, {"measurement": "herbicidal activity against SORVU found", "setting": "[2]; g/ha a.i.: I.1 31.25, B.96 140, mixture 31.25+140", "value": 0}, {"measurement": "herbicidal activity against SORVU found", "setting": "[2]; g/ha a.i.: I.1 62.5, naptalam 200, mixture 62.5+200", "value": 20}, {"measurement": "herbicidal activity against POLPE found", "setting": "[3]; 31.25 g/ha a.i.", "value": "45 and 70"}, {"measurement": "herbicidal activity against POLPE found", "setting": "[3]; 6 days after treatment, g/ha a.i.: I.1 31.25, B.96 35, mixture 31.25+35", "value": 10}, {"measurement": "herbicidal activity against POLPE found", "setting": "[3]; [7]", "value": 30}, {"measurement": "herbicidal activity against CONAR found", "setting": "[4]; 31.25 g/ha a.i.", "value": 40}, {"measurement": "herbicidal activity against CONAR found", "setting": "[4]; 62.5 g/ha a.i.", "value": 60}, {"measurement": "herbicidal activity against CONAR found", "setting": "[4]; 125 g/ha a.i.", "value": 70}, {"measurement": "herbicidal activity against CONAR found", "setting": "[4]; 6 days after treatment, g/ha a.i.: I.1 31.25, naptalam 50, mixture 31.25+50", "value": 5}, {"measurement": "herbicidal activity against CONAR found", "setting": "[4]; 6 days after treatment, g/ha a.i.: I.1 31.25, naptalam 100, mixture 31.25+100", "value": 5}, {"measurement": "herbicidal activity against CONAR found", "setting": "[4]; 6 days after treatment, g/ha a.i.: I.1 31.25, naptalam 200, mixture 31.25+200", "value": 5}, {"measurement": "herbicidal activity against CONAR found", "setting": "[4]; 6 days after treatment, g/ha a.i.: I.1 62.5, B.96 140, mixture 62.5+140", "value": 65}, {"measurement": "herbicidal activity against CONAR found", "setting": "[4]; 6 days after treatment, g/ha a.i.: I.1 125, naptalam 100, mixture 125+100", "value": 70}, {"measurement": "herbicidal activity against CONAR found", "setting": "[4]; [8]", "value": 0, "unit": "%"}, {"measurement": "herbicidal activity against CONAR found", "setting": "[4]; [9]", "value": 0, "unit": "%"}, {"measurement": "herbicidal activity against CONAR found", "setting": "[4]; a.i. g/ha: I.1 20.8, B.67 62.5, 20 days after treatment", "value": 0, "unit": "%"}, {"measurement": "herbicidal activity against CONAR found", "setting": "[4]; [10]", "value": 0, "unit": "%"}, {"measurement": "herbicidal activity against CONAR found", "setting": "[4]; a.i. g/ha: I.1 31.25, B.69 25, 20 days after treatment", "value": 70, "unit": "%"}, {"measurement": "herbicidal activity against CONAR found", "setting": "[4]; [11]", "value": 25, "unit": "%"}, {"measurement": "herbicidal activity against CONAR found", "setting": "[4]; [12]", "value": 0, "unit": "%"}, {"measurement": "herbicidal activity against CONAR found", "setting": "[4]; a.i. g/ha: I.1 62.5, B.69 25, 20 days after treatment", "value": 65, "unit": "%"}, {"measurement": "herbicidal activity against CONAR found", "setting": "[4]; a.i. g/ha: I.1 62.5, B.76 225, 20 days after treatment", "value": 65, "unit": "%"}, {"measurement": "herbicidal activity against CONAR found", "setting": "[4]; [13]", "value": 25, "unit": "%"}, {"measurement": "herbicidal activity against CONAR found", "setting": "[4]; a.i. g/ha: I.1 62.5, B.80 250, 20 days after treatment", "value": 25, "unit": "%"}, {"measurement": "herbicidal activity against CONAR found", "setting": "[4]; [7]", "value": 30}, {"measurement": "herbicidal activity against CONAR found", "setting": "[4]; application rate a.i.: I.1 31.25 g/ha, B.139 (pyroxasulfone) 25 g/ha, alone or as mixture (composition 1.139)", "value": 30}, {"measurement": "herbicidal activity against CONAR found", "setting": "[4]; [6]", "value": 25}, {"measurement": "herbicidal activity against CONAR found", "setting": "[4]; application rate a.i.: I.1 62.5 g/ha, B.84 (paraquat-dichloride) 17.5 g/ha, alone or as mixture (composition 1.84)", "value": 45}, {"measurement": "herbicidal activity against CONAR found", "setting": "[4]; application rate a.i.: I.1 125 g/ha, B.113 (glyphosate) 33.75 g/ha, alone or as mixture (composition 1.113)", "value": 80}, {"measurement": "herbicidal activity against LOLMU found", "setting": "[5]; [8]", "value": 0, "unit": "%"}, {"measurement": "herbicidal activity against LOLMU found", "setting": "[5]; [9]", "value": 0, "unit": "%"}, {"measurement": "herbicidal activity against LOLMU found", "setting": "[5]; [10]", "value": 0, "unit": "%"}, {"measurement": "herbicidal activity against LOLMU found", "setting": "[5]; [11]", "value": 40, "unit": "%"}, {"measurement": "herbicidal activity against LOLMU found", "setting": "[5]; [12]", "value": 20, "unit": "%"}, {"measurement": "herbicidal activity against LOLMU found", "setting": "[5]; [13]", "value": 20, "unit": "%"}]}
